According to patent US20250319078A1, “METHOD FOR SYNERGISTIC ENHANCEMENT OF REMYELINATION VIA MODULATION OF RXR AND A HETERODIMERIC PARTNER” (THE SCRIPPS RESEARCH INSTITUTE, priority 2022, published 2025):

Legend:
[1] = system: rat optic nerve derived OPCs; test: cell-based OPC differentiation assay quantifying % MBP-positive OLs by immunofluorescence after 6 days of treatment; details: for effect on % T3-induced MBP+OLs in combination with bexarotene (phenocopy of tasin-1, tamoxifen, LXR antagonist): heat maps, average n=3; for activity in enhancing OPC differentiation alone: single agent, without RXR activation
Source text: Combination-based screening and evaluation of LXR modulators. Pairwise screening of bexarotene and partner compounds was done in matrices of 9-12 doses for each and transferred onto 3 separate 384-well plates. […] Heat maps were generated using Prism to highlight impact of the combinations relative to baseline controls.
We evaluated various reported inhibitors of CYP51, TM7SF2 and EBP for their ability to enhance bexarotene-induced remyelination. We quantified activity based on immunofluorescence analysis of % MBP+OLs after 6 days of compound treatment, with vehicle/DMSO, clemastine and triiodothyronine (T3) controls on each plate using rat optic nerve derived OPCs.

[2] = dose of bexarotene used in the CCMR One trial; read-out: predicted Cmax; cited from earlier work
[3] = system: LXR; test: confocal imaging and line profile analysis of LXR localization in OPCs/oligodendrocytes; type: cell-based; details: 6 days of treatment; immunofluorescence, confocal imaging
Procedure: Confocal imaging and analysis of LXR expression. […] OPCs were then seeded at a density of 1,000 cells per well, and the plates were incubated at 37° C. with 5% CO2 for 6 d. On day 6, cells were then fixed for 20 min with 4% formaldehyde solution and stained with anti-LXRalpha/beta antibody (cat. #sc-271064, Santa Cruz Biotechnology) in 3% BSA, 0.3% Triton X-100 with overnight incubation at 4° C. The cells were washed and incubated with secondary antibody (Alexa Fluor 488 goat anti-mouse IgG, Life Technologies) and Hoechst 33342 (Invitrogen) for 1 h at room temperature. The cells were washed and plates were sealed and imaged using a Cellomics Cell Insight imaging reader (Thermo). Randomly-selected fields from 6 wells selected at random were imaged at 50× magnification using a Zeiss 780 confocal microscope. 10 cells within images from each treatment group were randomly selected for line profile analysis.
A line profile analysis of fluorescent intensities was performed by drawing an 18.5 μm line through the center of individual cells (n=10), from approximately 2-4 microns beyond the nuclear membrane on each side using the Fiji image processing platform. Fluorescence intensities over distance (μm) was graphed using Prism 9 software (GraphPad).

[4] = 20 mg daily dose of tamoxifen; cited from earlier work

SMILES	effect on % T3-induced MBP+OLs in combination with bexarotene (phenocopy of tasin-1, tamoxifen, LXR antagonist) [1]	activity in enhancing OPC differentiation alone [1]	localization of LXR following treatment [3]	also measured
CC(C)=CCC[C@@H](C)[C@H]1CC[C@H]2C3=C(CC[C@]12C)[C@@]1(C)CC[C@H](O)C[C@@H]1CC3 [Zymosterol]	phenocopies tasin-1, tamoxifen and LXR agonists			
C=C(c1ccc(C(=O)O)cc1)c1cc2c(cc1C)C(C)(C)CCC2(C)C [bexarotene]				cell-based OPC differentiation ECmax of bexarotene (concentration required to achieve optimal activity) ([1]; bexarotene combined with tamoxifen): ~150 nM; Cmax [2]: 2600 nM
CC/C(=C(\c1ccccc1)c1ccc(OCCN(C)C)cc1)c1ccccc1 [tamoxifen]		minimally active	significant shift in localization of LXR	steady state plasma concentration [4]: 834 nM
CC(C)=CCC[C@@H](C)[C@H]1CC=C2C3=C(CC[C@@]21C)[C@@]1(C)CC[C@H](O)C(C)(C)[C@@H]1CC3 [FF-MAS, Follicular fluid meiosis-activating sterol]	combines with bexarotene (RXRg agonist) to phenocopy tasin-1, tamoxifen, or an LXR antagonist			
Cc1cc(C)c(S(=O)(=O)N(CCc2cccc(Br)c2)Cc2ccc(-c3cccc(S(C)(=O)=O)c3)cc2)c(C)c1 [SR9243]	phenocopies GSK2033, FFMAS, tasin-1 and tamoxifen			
COc1ccc(S(=O)(=O)N2CCC(N3CCC(C)CC3)CC2)cc1 [tasin-1]		minimally active	significant shift in localization of LXR	
